Design in all cases: species or system human
Test [1] concerns plasma autoantibodies (anti-GPIIIa) of chronic ITP patients. In words: Solid-phase radioimmunoassay: plasma autoantibody binding to well-bound synthetic GPIIIa peptide. As to the method: Microtiter wells were activated with 100 μl of 0.1% glutaraldehyde in coating buffer (0.1M NaHCO3, pH 8.3) for 1 hr at room temperature (RT). Wells were washed twice with PBS and then incubated for 2 hr at PT with 1 μg of each synthetic peptide in 100 μl of coating buffer. After 6 washes with 0.05% Tween-20 (Sigma Chemical Co., St. Louis, MO) in PBS (wash buffer), each well was incubated with 200 μl of 2% BSA in wash buffer for 1 hr at RT. The wells were washed 6 times, followed by the addition to triplicate wells of 100 μl of plasma diluted 1/10 in wash buffer. After incubation for 1 hr and 6 washes, 100 μl of radiolabeled anti-human igG in wash buffer (100,000 cpm) was added to each well. After a final 1 hr incubation and 6 washes, well-bound radioactivity was determined. Data were expressed as a ratio: Mean cpm bound to GPIIIa peptide divided by mean cpm bound to control peptide (P10).
Nine synthetic peptides corresponding to different sequences within platelet GPIIIa (P1-P9, Table 1) were used as antigenic targets. A synthetic peptide of human HLA Class I heavy chain was used as a control (P10). Plasma from 13 patients with chronic ITP was studied. […] These 2 hydrophilic overlapping peptides are located at the carboxyterminal region of GPIIIa and together comprise the portion of the molecule considered to be the cytoplasmic domain. Plasma for patients ITP-1 and ITP-2 bound to peptide 9 with mean ratios of 32.4 (3 studies) and 5.8 (2 studies), respectively, while patient ITP-3 plasma bound to both peptides 8 and 9 (mean ratios of 13.3 and 3.3, respectively; 3 studies) and patients ITP-4 and ITP-5 bound to peptide 8 (mean ratios of 3.6, 2 studies and 9.4, 2 studies).

The test system of test [2] is autoantibody binding to washed platelets. In words: Inhibition of autoantibody binding to washed platelets by peptide. The procedure: Washed platelets (3×10^7) were incubated with patient plasma (ITP-1-15 μl, ITP-2-60 μl, ITP-3-30 μl) in a total volume of 200 μl citrate buffer for 2 hrs at room temperature, followed by 4 washes. After resuspension in 300 μl of citrate buffer, platelets were lysed with 33 μl of 10% Triton X-100 in citrate buffer. Next, 100 μl of lysate was added to wells coated with murine anti-GPIIb. Bound antibody was detected with labeled anti-human IgG as described.
(§1) To evaluate the ability of washed platelets, affinity-purified GPIIb/IIIa or synthetic peptides to block autoantibody binding, serial dilutions of platelets, GPIIb/IIIa or synthetic peptides (maximum addition: 10^10 platelets, 200 μg GPIIb/IIIa or 10 μg of peptide per 100 μl plasma, respectively) were incubated overnight at 4° C. with the patient's plasma. The preincubated plasma (100 μl 1/10 dilution) was added to replicate wells containing either GPIIb/IIIa from platelet lysate, affinity-purified GPIIb/IIIa or synthetic peptide, and antibody binding to each well was evaluated as describe above. Data were expressed as a percent of the binding of untreated plasma (% inhibition).
To evaluate the contribution of these antipeptide antibodies to the patients' total plasma anti-GPIIb/IIIa activity, the ITP plasmas were preincubated with serial dilutions of the appropriate peptide (8 or 9) and then tested in 4 different assays. In the first, the pretreated plasma was incubated with platelets. After washing and lysis, the GPIIb/IIIa complexes were captured on microtiter wells by monoclonal antibody. In the other 3 assays, pretreated plasma was added to microtiter wells coated directly with either peptide or affinity-purified GPIIb/IIIa (Aff-GPIIb/IIIa) or to microtiter wells with GPIIb/IIIa from plate let lysate immobilized by monoclonal antibody (Moab-GPIIb/IIIa). Antibody binding was detected in all assays with labeled antihuman IgG.

Test [3] has as its system antipeptide antibody binding to GPIIIa peptides. In words: Inhibition of antipeptide antibody binding to GPIIIa peptides by platelets or purified GPIIb/IIIa. Particulars: plasma ITP-1, -2, -3 (1/10 dilution) preincubated with inhibitor. The procedure:
as §1
Three of the peptide-positive plasma samples (ITP-1, -2 and -3) were tested further; additional testing of ITP-4 and ITP-5 was not possible due to insufficient plasma.

As to “ANNPLYKEATSTFTNITYRDT (ANNPLYDEATSTFTNITYRDT) [P9]”, the “mean binding ratio (cpm bound to GPIIIa peptide / cpm bound to control peptide P10)” value is given as 32.4 in test [1] (plasma of patient ITP-1, 1/10 dilution, 3 studies); 5.8 in test [1] (plasma of patient ITP-2, 1/10 dilution, 2 studies); 3.3 in test [1] (plasma of patient ITP-3, 1/10 dilution, 3 studies). In addition, the “inhibition of autoantibody binding to washed platelets” value in test [2] (plasma ITP-1 preincubated with peptide, 3 studies (range)) was 87.8-98.0; in test [2] (plasma ITP-2 preincubated with peptide, 2 studies) it was 94.0%. In test [2] (plasma from ITP-1 and ITP-2 preincubated with peptide, summary in discussion), the “inhibition of antibody binding to both platelets and GPIIb/IIIa from platelet lysates” value is recorded as more than 80%.
In the case of “affinity-purified GPIIb/IIIa: GPIIb/IIIa complex eluted from an anti-GPIIb monoclonal antibody (2A9) column loaded with platelet extract”, in test [3], the “inhibition of antibody reactivity of plasma with the GPIIIa peptides” value was “completely inhibited”.

The record behind these values is patent US5177188A, “Methods and compositions for diagnosing chronic immune thrombocytopenic purpura” (The Scripps Research Institute, priority 1990, dated 1993).
